Reference: PubChem BioAssay (NCI)
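In this assay, cells in 96-well plates receive the compound at five concentrations for 48 hours. Endpoints are linearly interpolated between the surrounding concentrations. Here, GI50 denotes the concentration required for 50% inhibition of growth. Definition used: TGI = concentration required for complete inhibition of growth.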

Key:
Assay in all cases: DTP human tumour cell line panel, 48 h
NCI-H522 lung = tested on: NCI-H522 lung
SF-295 CNS = tested on: SF-295 CNS
SK-MEL-5 melanoma = tested on: SK-MEL-5 melanoma
SNB-19 CNS = tested on: SNB-19 CNS
TK-10 renal = tested on: TK-10 renal
U251 CNS = tested on: U251 CNS
OVCAR-5 ovarian = tested on: OVCAR-5 ovarian
HS 578T breast = tested on: HS 578T breast
SR leukemia = tested on: SR leukemia

Row | Compound | TGI (NCI-H522 lung) [µM] | TGI (SF-295 CNS) [µM] | TGI (SK-MEL-5 melanoma) [µM] | TGI (SNB-19 CNS) [µM] | TGI (TK-10 renal) [µM] | TGI (U251 CNS) [µM] | TGI (OVCAR-5 ovarian) [µM] | GI50 (HS 578T breast) [µM] | TGI (HS 578T breast) [µM] | GI50 (OVCAR-5 ovarian) [µM] | GI50 (SF-295 CNS) [µM] | GI50 (SK-MEL-5 melanoma) [µM] | GI50 (TK-10 renal) [µM] | GI50 (U251 CNS) [µM] | TGI (SR leukemia) [µM] | GI50 (NCI-H522 lung) [µM] | GI50 (SNB-19 CNS) [µM] | GI50 (SR leukemia) [µM]
1 | c1ccc(-c2csc3ncn4cnnc4c23)cc1 | > 100 | > 100 | > 100 | > 100 | > 100 | > 100 |  |  |  |  |  |  |  |  |  |  |  | 
2 | Cc1ccc(C2=Nc3ccccc3SC(c3cccc4c3OCO4)C2)cc1 (centres undefined) | 31 | 45.6 | 31.1 | 30.7 | 40.3 |  | 51.5 |  |  |  |  |  |  |  |  |  |  | 
3 | Cn1nc(-c2ccccc2)c(C(=O)/C=C/c2ccc(Cl)cc2)c(N2CCOCC2)c1=O | 9.46 | 4.79 | 17.2 | 29.3 | 25.8 | 12.8 |  |  |  |  |  |  |  |  |  |  |  | 
4 | C=CC[N+]1(CC)CCN=C1CCCCCCCCCCCCCCCCC (centres undefined) |  | 0.936 | 1.3 |  | 2.44 | 1.47 | 1.64 | 0.432 | 1.57 | 0.472 | 0.249 | 0.355 | 1.1 | 0.386 |  |  |  | 
5 | O=[N+]([O-])/C=C/c1ccc(Cl)cc1Cl | 29.8 | 32 | 29.4 | 32.4 |  | 20.5 | 46.3 |  |  |  |  |  |  |  | 47 |  |  | 
6 | N#C/C(=C1\OC(=N)C(c2ccc(Cl)cc2Cl)C1=O)c1ccc(Cl)cc1Cl (centres undefined) | > 100 | > 100 | > 100 | > 100 | > 100 |  | > 100 |  |  |  |  |  |  |  |  |  |  | 
7 | O=C(c1c(O)cc(O)cc1O)C1Cc2ccccc21 (centres undefined) | > 100 | > 100 | > 100 | > 100 | > 100 | > 100 | > 100 |  |  |  |  |  |  |  | > 100 |  |  | 
8 | CC(N)CC(=O)O (centres undefined) | > 5000 | > 5000 | > 5000 |  | > 5000 | > 5000 | > 5000 |  |  |  |  |  |  |  | > 5000 |  |  | 
9 | O=C(CC(=O)c1ccccc1)C(=O)Nc1ccc(Cl)cc1 | > 100 | > 100 | > 100 | > 100 | > 100 | > 100 | > 100 |  |  |  |  |  |  |  | > 100 |  |  | 
10 | CC(C)OC(=O)C1Cc2c([nH]c3ccccc23)C(c2ccccc2)N1 (centres undefined) | > 100 | > 100 | > 100 | > 100 | > 100 | > 100 | > 100 |  |  |  |  |  |  |  |  |  |  | 
11 | O=C(Cc1ccccc1)C(c1ccccc1)S(=O)(=O)c1ccccc1 (centres undefined) | > 100 | > 100 | > 100 | > 100 | > 100 | > 100 | > 100 |  |  |  |  |  |  |  | > 100 |  |  | 
12 | C[P+]1(c2ccccc2)CCCCC1 |  | > 100 | > 100 | > 100 | > 100 | > 100 | > 100 |  |  |  |  |  |  |  |  |  |  | 
13 | C=C1C=CC2(Br)OC3CC(C)(Cl)C(Br)CC13C2(C)C (centres undefined) | 30.1 | 45.5 | 31 | 88.3 | > 100 | 35.3 | 57.6 |  |  |  |  |  |  |  |  |  |  | 
14 | CC(=O)Nc1ccc(S(=O)(=O)NN(C)S(=O)(=O)c2ccc(C)cc2)cc1 | > 100 | > 100 | > 100 | > 100 | > 100 |  | > 100 |  |  |  |  |  |  |  | > 100 |  |  | 
15 | Cc1ccc(NC(=O)/C(C#N)=C/c2ccccc2)c(C)c1 | > 100 | > 100 | > 100 | > 100 | > 100 | > 100 | > 100 |  |  |  |  |  |  |  | > 100 |  |  | 
16 | CC(=O)[CH-]C(C)=O.CC(=O)[CH-]C(C)=O.CC(=O)[CH-]C(C)=O.[Ga+3] | > 100 | > 100 | > 100 | > 100 | > 100 | > 100 | > 100 |  |  | > 100 | > 100 | > 100 | > 100 | > 100 | > 100 | > 100 | > 100 | > 100
17 | CC(=O)CC(=O)CCC(=O)Nc1cccc(C(F)(F)F)c1 | > 100 | > 100 | > 100 | > 100 | > 100 | > 100 | > 100 |  |  |  |  |  |  |  |  |  |  | 
18 | Cc1nnc(N/N=C(/C(=O)C(C#N)c2ccc(Cl)cc2)C(C#N)c2ccc(Cl)cc2)n1N (centres undefined) | 32.3 | 30.9 | 30.9 | 27.9 | 34.7 |  | 33.6 |  |  |  |  |  |  |  |  |  |  | 
19 | CCOC(=O)C(CCCNC(=O)OC(C)(C)C)N(Cc1ccc(OC)cc1OC)C(=O)CC(=O)CP(=O)(OCC)OCC (centres undefined) | > 100 | > 100 | > 100 | > 100 | > 100 | > 100 | > 100 |  |  |  |  |  |  |  | > 100 |  |  | 
20 | O=C(CO)C1CC2C=CC1C2 (centres undefined) | > 100 | > 100 | > 100 | > 100 | > 100 | > 100 | > 100 |  |  |  |  |  |  |  |  |  |  | 
21 | N#CNC1=NC(N)C(c2nc3ccccc3[nH]2)=C(CCCC(=O)Nc2cccc([N+](=O)[O-])c2)N1 (centres undefined) | > 100 | > 100 | > 100 | > 100 | > 100 |  | > 100 |  |  |  |  |  |  |  |  |  |  | 
